From patent US20040171566A1, “Antisense modulation of p38 mitogen activated protein kinase expression” (priority 1999, published 2004)
In the oligonucleotide strings, read from the 5' end, every base follows the letter of its sugar. An asterisk marks phosphorothioate; unmarked linkages are phosphodiester. Other units and linkages are bracketed, terminal groups are in braces. A string of capitals states the bases alone. e = 2'-O-(2-methoxyethyl) (MOE); [5mC] = 5-methylcytosine; d = 2'-deoxy (DNA)

How the values were obtained:
human p38β mRNA = test: Human p38β mRNA expression in T-24 cells; details: for % P38β mRNA EXPRESSION: initial screen of human p38α oligonucleotides
human p38α mRNA = test: Human p38α mRNA expression in T-24 cells; details: for % P38α mRNA EXPRESSION: initial screen of human p38α oligonucleotides
[1] = initial screen of human p38β oligonucleotides
[2] = dose 50 nM, relative to control oligonucleotide = 100%
[3] = dose 100 nM, relative to control oligonucleotide = 100%
[4] = dose 200 nM, relative to control oligonucleotide = 100%

Sequence	% P38β mRNA EXPRESSION (human p38β mRNA) [%]	% P38α mRNA EXPRESSION (human p38α mRNA) [%]	% p38β mRNA Expression (human p38β mRNA; [1]) [%]	% p38α mRNA EXPRESSION (human p38α mRNA; [1]) [%]	also measured
AATGATGGACTGAAATGGTC (eA*eA*eT*eG*eA*dT*dG*dG*dA*d[5mC]*dT*dG*dA*dA*dA*eT*eG*eG*eT*e[5mC]; antisense) [ISIS 100863]	67	49	–	–	–
ACAGACGGAGCCGTAGGCGC (antisense eAe[5mC]eAeGeA*d[5mC]*dG*dG*dA*dG*d[5mC]*d[5mC]*dG*dT*dA*eGeGe[5mC]eGe[5mC]) [ISIS 107869]	–	–	60	93	–
ACGCTCGGGCACCTCCCAGA (phosphorothioate gapmer, further chemistry not given here) [ISIS 100861]	47	60	–	–	–
ACGTTGCTGGGCTTCAGGTC (antisense eAe[5mC]eGeTeT*dG*d[5mC]*dT*dG*dG*dG*d[5mC]*dT*dT*d[5mC]*eAeGeGeTe[5mC]) [ISIS 107874]	–	–	61	100	% p38β mRNA Expression (human p38β mRNA; [2]): 75%; % p38β mRNA Expression (human p38β mRNA; [3]): 34%; % p38β mRNA Expression (human p38β mRNA; [4]): 23%
AGCTTCTTCACTGCCACACG (phosphorothioate gapmer, further chemistry not given here) [ISIS 100862]	45	56	–	–	–
AGGTGCTCAGGACTCCATCT (chimeric deoxy gapped, phosphorothioate, further chemistry not given here) [ISIS 100876]	93	77	–	–	–
AGTCAAAGACTGAATATAGT (eA*eG*eT*e[5mC]*eA*dA*dA*dG*dA*d[5mC]*dT*dG*dA*dA*dT*eA*eT*eA*eG*eT; antisense) [ISIS 100871]	96	57	–	–	–
ATGGACGTGGCCGGCGTGAA (antisense eAeTeGeGeA*d[5mC]*dG*dT*dG*dG*d[5mC]*d[5mC]*dG*dG*d[5mC]*eGeTeGeAeA) [ISIS 107872]	–	–	57	123	% p38β mRNA Expression (human p38β mRNA; [2]): 71%; % p38β mRNA Expression (human p38β mRNA; [3]): 13%; % p38β mRNA Expression (human p38β mRNA; [4]): 22%
CACCGCCACCTTCTGGCGCA (antisense e[5mC]eAe[5mC]e[5mC]eG*d[5mC]*d[5mC]*dA*d[5mC]*d[5mC]*dT*dT*d[5mC]*dT*dG*eGe[5mC]eGe[5mC]eA) [ISIS 107870]	–	–	74	97	–
CACGTAGCCTGTCATTTCAT (chimeric deoxy gapped, phosphorothioate, further chemistry not given here) [ISIS 100868]	60	47	–	–	–
CAGGAATTGAACGTGCTCGT (antisense e[5mC]eAeGeGeA*dA*dT*dT*dG*dA*dA*d[5mC]*dG*dT*dG*e[5mC]eTe[5mC]eGeT) [ISIS 107873]	–	–	58	120	% p38β mRNA Expression (human p38β mRNA; [2]): 69%; % p38β mRNA Expression (human p38β mRNA; [3]): 41%; % p38β mRNA Expression (human p38β mRNA; [4]): 23%
CAGTTGAGCATGATCTCAGG (antisense e[5mC]eAeGeTeT*dG*dA*dG*d[5mC]*dA*dT*dG*dA*dT*d[5mC]*eTe[5mC]eAeGeG) [ISIS 107876]	–	–	127	137	–
CATCATCAGGATCGTGGTAC (chimeric deoxy gapped, phosphorothioate, further chemistry not given here) [ISIS 100873]	70	34	–	–	% p38α mRNA EXPRESSION (human p38α mRNA; dose 50 nM): 19%; % p38α mRNA EXPRESSION (human p38α mRNA; dose 100 nM): 12%; % p38α mRNA EXPRESSION (human p38α mRNA; dose 200 nM): 8%
CATCCCACTGACCAAATATC (chimeric deoxy gapped, phosphorothioate, further chemistry not given here) [ISIS 100869]	100	61	–	–	–
